Drawing on ChEMBL document CHEMBL1201862, “PubChem BioAssay data set” (2004), this text covers IC50, EC50 and AC50 for eleven molecules.

Broadly, the IC50 is the point on the concentration scale where inhibition reaches its midpoint. As usually defined, the EC50 is the midpoint of the concentration-response curve. The term AC50 denotes the concentration at which the activity in the assay is half-maximal. The term pIC50 denotes −log10 of the IC50, conventionally taken in molar units. The low end stands for a high IC50, the high end for a low IC50.

Assay [1] addresses Polyadenylate-binding protein 1 (Homo sapiens, UniProt P11940). The experiment in a line: PABP inhibition in translation initiation, SAR follow-up (AID 435018). Format: functional.
The target of assay [2] is Eukaryotic translation initiation factor 4H (Homo sapiens, UniProt Q15056). Briefly: eIF4H inhibition in translation initiation, SAR follow-up (AID 435011). Format: functional.
The subject of assay [3] is HEK293. Briefly: NOD1 signaling inhibitors, primary screen, cell-based, luminescence, uHTS (AID 1578). Format: functional. The conditions noted are these: Homo sapiens.
The subject of assay [4] is HEK293. Briefly: cells. The note with it: Homo sapiens.
The subject of assay [5] is HEK293. The experiment in a line: cells. Format: functional, cell-based. The note with it: Homo sapiens.
Assay [6] deals with HEK293. The experiment in a line: NOD2 signaling inhibitors in MDP-stimulated cells, cell-based, uHTS, luminescence (AID 2001). The conditions noted are these: Homo sapiens. Format: functional.
Assay [7] concerns the target Tumor necrosis factor (Homo sapiens, UniProt P01375). Briefly: TNFa-triggered NF-kB activation inhibitors, SAR follow-up, cell-based, revised (AID 2337). Format: functional.
Assay [8] concerns the target T1, Nucleotide-binding oligomerization domain-containing protein 1 (Homo sapiens, UniProt Q9Y239).
T1 sequence (Q9Y239 whole entry): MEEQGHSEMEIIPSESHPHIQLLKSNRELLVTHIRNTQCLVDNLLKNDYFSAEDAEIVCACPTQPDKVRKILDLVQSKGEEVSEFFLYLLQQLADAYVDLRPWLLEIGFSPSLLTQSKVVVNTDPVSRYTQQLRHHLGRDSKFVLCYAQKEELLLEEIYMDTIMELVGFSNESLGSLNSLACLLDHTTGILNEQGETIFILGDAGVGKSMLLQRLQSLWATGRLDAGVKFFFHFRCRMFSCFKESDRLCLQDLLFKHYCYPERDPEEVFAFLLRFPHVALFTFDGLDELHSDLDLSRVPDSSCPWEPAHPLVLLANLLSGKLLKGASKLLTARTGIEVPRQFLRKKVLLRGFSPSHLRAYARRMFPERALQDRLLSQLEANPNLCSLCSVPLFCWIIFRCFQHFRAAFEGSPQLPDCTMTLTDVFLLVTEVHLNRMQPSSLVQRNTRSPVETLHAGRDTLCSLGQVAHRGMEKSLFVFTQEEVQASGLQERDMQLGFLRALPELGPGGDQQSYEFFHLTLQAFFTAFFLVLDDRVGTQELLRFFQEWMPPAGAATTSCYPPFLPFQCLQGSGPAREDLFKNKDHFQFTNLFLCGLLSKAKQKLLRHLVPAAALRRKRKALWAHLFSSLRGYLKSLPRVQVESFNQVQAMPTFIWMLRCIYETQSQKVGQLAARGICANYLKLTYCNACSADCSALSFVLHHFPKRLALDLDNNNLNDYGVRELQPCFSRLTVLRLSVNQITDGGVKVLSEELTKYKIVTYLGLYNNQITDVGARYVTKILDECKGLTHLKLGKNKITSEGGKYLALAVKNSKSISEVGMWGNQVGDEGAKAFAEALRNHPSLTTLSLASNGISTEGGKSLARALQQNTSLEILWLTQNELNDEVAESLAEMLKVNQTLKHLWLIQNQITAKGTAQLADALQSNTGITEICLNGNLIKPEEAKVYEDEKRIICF
Briefly: NOD1 signaling inhibitors, SAR follow-up, revised (AID 2333). Format: functional.

In assay [9] the test system is HEK293. The experiment in a line: cells. Format: functional, cell-based. The conditions noted are these: Homo sapiens. The source holds these as a separate data set.
In assay [10] the test system is HEK293. The experiment in a line: cells. Format: functional, cell-based. The note with it: Homo sapiens. The source holds these as a separate data set.
A short description of assay [11]: cells. Format: functional, cell-based.
Assay [12] has as its system INS1. Briefly: beta cell apoptosis inhibitors, cytokine rescue, dose response, luminescence, retest (AID 449756).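 Also: cell death triggered by IL-1 beta plus TNF-alpha plus IFN-gamma mixture; protective hits raise ATP signal compared with cytokine alone wells.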 Format: functional, cell-based. The conditions noted are these: Rattus norvegicus.
Assay [13] is described as follows: cells. Format: functional, cell-based. This is another data set of the same source.
The target in assay [14] is Nucleotide-binding oligomerization domain-containing protein 2 (Homo sapiens, UniProt Q9HC29). Briefly: NOD2 signaling inhibitors, cell-based, luminescence, uHTS, HEK293 (AID 1566). Format: functional.
A short description of assay [15]: Luminescence Cell-Based Dose Retest to Confirm Inhibitors of Cancer Stem Cells. [Related pubchem assays (depositor defined):AID2717, AID2721]. Format: functional. The conditions noted are these: Homo sapiens.
Assay [16] has as its target SUMO-activating enzyme (Homo sapiens, UniProt Q9UBT2). The experiment in a line: SUMOylation inhibitor hit validation, confirmation, SUMOylation inhibitor project, biochemical, AlphaScreen (AID 2018). Format: functional. (Bead proximity is the source of the signal in Alpha formats.)
Assay [17] addresses T2, Kappa-type opioid receptor (Homo sapiens, UniProt P41145). Format: functional.
Assay [18] addresses T3, Protein skinhead-1 (Caenorhabditis elegans, UniProt P34707).
T3 sequence (P34707 whole entry): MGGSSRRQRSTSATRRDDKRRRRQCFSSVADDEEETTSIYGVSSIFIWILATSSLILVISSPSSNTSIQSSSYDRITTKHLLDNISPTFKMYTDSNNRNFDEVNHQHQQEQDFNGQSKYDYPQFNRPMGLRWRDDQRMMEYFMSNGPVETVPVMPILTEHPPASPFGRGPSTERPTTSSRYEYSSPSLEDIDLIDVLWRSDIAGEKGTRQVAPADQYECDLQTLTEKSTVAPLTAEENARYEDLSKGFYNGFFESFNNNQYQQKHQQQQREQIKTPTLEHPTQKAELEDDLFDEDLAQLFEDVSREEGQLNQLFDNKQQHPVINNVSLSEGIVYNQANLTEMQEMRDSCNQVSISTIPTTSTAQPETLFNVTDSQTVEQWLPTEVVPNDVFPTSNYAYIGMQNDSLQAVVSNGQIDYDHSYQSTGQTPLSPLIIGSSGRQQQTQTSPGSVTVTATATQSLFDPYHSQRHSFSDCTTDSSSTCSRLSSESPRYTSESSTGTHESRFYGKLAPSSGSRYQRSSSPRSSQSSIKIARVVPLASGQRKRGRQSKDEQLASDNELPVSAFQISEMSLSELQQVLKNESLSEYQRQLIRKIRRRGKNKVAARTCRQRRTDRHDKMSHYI
Format: functional.

The target of assay [19] is T2, Kappa-type opioid receptor. Format: functional. This is another data set of the same source.
For assay [20], the target named is Beta-galactosidase (Escherichia coli, UniProt Q8VNN2). Format: functional.
Assay [21] concerns the target Peroxisome proliferator-activated receptor gamma/Nuclear receptor coactivator 3 (Homo sapiens, UniProt P37231). The experiment in a line: TR-FRET dose response biochemical High Throughput Screening assay for agonists of the steroid receptor coactivator 3 (SRC-3) recruitment by the peroxisome proliferator-activated receptor gamma (PPAR gamma): non-selective agonists. [Related pubchem assays: 1301 (Confirmation screen.), 1048 (Primary screen.)]. Format: functional. (TR-FRET usually uses a lanthanide donor and a delayed reading to cut background.)

For assay [22], the target named is Peroxisome proliferator-activated receptor gamma/Nuclear receptor coactivator 1 (Homo sapiens, UniProt P37231). Briefly: TR-FRET dose response biochemical High Throughput Screening assay for agonists of the steroid receptor coactivator 1 (SRC-1) recruitment by the peroxisome proliferator-activated receptor gamma (PPAR gamma): non-selective agonists. [Related pubchem assays (depositor defined):AID1300, AID1808, AID504735, AID631]. Format: protein assay.

In assay [23] the target is Peroxisome proliferator-activated receptor gamma/Nuclear receptor coactivator 2 (Homo sapiens, UniProt P37231). Briefly: TR-FRET dose response biochemical High Throughput Screening assay for agonists of the steroid receptor coactivator 2 (SRC-2) recruitment by the peroxisome proliferator-activated receptor gamma (PPAR gamma): non-selective agonists. [Related pubchem assays: 1297, 1032 ]. Format: functional.

For assay [24], the target named is Nonstructural protein 1 (Influenza A virus, UniProt Q194T2). Format: functional, Influenza A virus (A/California/07/2009(H1N1)).
Assay [25] concerns the target Heat shock protein HSP 90-alpha (Homo sapiens, UniProt P07900). Format: functional, organism-based.
Assay [26] deals with BJ. Briefly: cytotoxicity toward Ras-transformed BJeLR fibroblasts, dose response, cell-based, alamar blue fluorescence, cherrypicked samples (AID 2631).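 Also: confirmatory dose-response assay in RAS-dependent BJ fibroblasts engineered with TERT, LT and ST, with cytotoxicity read by fluorescence.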 Format: functional. The conditions noted are these: Homo sapiens. For orientation: The colour change of resazurin is a common sign of viable cells or microbes.
Assay [27] addresses T4, Rac GTPase-activating protein 1 (Homo sapiens, UniProt Q9H0H5).
T4 sequence (Q9H0H5 whole entry): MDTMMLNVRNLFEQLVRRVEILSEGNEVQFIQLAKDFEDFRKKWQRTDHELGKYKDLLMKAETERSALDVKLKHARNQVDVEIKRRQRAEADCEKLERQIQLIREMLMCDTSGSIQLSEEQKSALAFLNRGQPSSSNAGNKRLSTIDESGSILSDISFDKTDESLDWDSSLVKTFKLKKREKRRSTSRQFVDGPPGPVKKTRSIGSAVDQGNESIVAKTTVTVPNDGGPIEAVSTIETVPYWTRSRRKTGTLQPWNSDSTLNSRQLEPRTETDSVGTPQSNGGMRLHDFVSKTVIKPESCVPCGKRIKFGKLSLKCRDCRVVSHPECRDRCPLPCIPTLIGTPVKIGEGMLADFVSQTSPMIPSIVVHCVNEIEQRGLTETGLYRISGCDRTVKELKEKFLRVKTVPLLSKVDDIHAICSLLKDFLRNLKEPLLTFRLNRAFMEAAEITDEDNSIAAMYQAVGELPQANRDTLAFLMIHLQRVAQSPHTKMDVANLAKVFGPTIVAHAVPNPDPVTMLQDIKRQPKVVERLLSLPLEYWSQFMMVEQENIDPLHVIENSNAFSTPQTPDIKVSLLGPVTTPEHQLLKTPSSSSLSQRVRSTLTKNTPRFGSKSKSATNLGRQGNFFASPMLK
The experiment in a line: MgcRacGAP GTPase-activating activity inhibitors, confirmation, biochemical, ADP Hunter fluorescence, primary and confirmatory (AID 624330). Format: functional.

pIC50: −log10 of the molar value. The source made the active and inactive calls.

Polyadenylate-binding protein 1, sequence (P11940 whole entry): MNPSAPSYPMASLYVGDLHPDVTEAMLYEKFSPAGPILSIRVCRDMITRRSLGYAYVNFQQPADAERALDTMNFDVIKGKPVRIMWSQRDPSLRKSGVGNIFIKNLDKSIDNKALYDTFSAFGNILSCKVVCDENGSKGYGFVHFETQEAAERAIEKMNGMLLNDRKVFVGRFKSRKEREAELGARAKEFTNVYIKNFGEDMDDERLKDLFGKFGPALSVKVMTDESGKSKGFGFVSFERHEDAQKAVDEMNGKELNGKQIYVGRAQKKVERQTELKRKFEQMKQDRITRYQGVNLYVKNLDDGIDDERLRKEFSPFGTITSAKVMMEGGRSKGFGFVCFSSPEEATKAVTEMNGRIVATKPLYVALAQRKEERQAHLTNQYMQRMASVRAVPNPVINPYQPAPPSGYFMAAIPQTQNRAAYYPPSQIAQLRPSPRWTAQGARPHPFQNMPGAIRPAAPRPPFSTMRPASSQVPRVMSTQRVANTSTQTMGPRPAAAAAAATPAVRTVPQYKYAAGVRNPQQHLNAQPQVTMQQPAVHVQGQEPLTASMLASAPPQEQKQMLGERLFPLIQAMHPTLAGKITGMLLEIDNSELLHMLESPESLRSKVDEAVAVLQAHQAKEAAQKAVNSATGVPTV
T2 sequence (P41145 whole entry): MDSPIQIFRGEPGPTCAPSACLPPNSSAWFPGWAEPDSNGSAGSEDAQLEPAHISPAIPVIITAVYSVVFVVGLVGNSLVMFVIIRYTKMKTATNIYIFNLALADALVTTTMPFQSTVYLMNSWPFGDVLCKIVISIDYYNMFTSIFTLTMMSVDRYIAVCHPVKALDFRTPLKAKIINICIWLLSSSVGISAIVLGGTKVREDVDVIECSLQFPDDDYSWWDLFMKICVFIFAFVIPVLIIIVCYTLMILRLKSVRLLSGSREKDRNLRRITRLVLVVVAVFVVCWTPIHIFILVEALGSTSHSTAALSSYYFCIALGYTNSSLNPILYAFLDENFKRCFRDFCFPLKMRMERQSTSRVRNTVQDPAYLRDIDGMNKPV
Peroxisome proliferator-activated receptor gamma/Nuclear receptor coactivator 3, sequence (P37231 whole entry): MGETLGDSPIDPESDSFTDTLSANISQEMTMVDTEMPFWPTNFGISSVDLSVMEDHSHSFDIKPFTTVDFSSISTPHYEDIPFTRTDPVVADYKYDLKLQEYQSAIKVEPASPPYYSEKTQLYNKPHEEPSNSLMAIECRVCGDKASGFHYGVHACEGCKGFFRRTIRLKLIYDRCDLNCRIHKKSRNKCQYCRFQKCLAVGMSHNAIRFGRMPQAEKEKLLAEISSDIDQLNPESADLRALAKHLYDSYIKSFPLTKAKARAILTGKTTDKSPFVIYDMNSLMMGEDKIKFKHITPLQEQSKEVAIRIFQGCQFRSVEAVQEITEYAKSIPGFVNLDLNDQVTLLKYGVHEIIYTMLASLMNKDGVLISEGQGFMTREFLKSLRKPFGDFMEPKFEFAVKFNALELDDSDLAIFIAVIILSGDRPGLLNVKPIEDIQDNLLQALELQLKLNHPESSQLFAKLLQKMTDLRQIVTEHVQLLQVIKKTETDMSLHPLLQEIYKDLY
Peroxisome proliferator-activated receptor gamma/Nuclear receptor coactivator 3, sequence (Q9Y6Q9 whole entry, further chain): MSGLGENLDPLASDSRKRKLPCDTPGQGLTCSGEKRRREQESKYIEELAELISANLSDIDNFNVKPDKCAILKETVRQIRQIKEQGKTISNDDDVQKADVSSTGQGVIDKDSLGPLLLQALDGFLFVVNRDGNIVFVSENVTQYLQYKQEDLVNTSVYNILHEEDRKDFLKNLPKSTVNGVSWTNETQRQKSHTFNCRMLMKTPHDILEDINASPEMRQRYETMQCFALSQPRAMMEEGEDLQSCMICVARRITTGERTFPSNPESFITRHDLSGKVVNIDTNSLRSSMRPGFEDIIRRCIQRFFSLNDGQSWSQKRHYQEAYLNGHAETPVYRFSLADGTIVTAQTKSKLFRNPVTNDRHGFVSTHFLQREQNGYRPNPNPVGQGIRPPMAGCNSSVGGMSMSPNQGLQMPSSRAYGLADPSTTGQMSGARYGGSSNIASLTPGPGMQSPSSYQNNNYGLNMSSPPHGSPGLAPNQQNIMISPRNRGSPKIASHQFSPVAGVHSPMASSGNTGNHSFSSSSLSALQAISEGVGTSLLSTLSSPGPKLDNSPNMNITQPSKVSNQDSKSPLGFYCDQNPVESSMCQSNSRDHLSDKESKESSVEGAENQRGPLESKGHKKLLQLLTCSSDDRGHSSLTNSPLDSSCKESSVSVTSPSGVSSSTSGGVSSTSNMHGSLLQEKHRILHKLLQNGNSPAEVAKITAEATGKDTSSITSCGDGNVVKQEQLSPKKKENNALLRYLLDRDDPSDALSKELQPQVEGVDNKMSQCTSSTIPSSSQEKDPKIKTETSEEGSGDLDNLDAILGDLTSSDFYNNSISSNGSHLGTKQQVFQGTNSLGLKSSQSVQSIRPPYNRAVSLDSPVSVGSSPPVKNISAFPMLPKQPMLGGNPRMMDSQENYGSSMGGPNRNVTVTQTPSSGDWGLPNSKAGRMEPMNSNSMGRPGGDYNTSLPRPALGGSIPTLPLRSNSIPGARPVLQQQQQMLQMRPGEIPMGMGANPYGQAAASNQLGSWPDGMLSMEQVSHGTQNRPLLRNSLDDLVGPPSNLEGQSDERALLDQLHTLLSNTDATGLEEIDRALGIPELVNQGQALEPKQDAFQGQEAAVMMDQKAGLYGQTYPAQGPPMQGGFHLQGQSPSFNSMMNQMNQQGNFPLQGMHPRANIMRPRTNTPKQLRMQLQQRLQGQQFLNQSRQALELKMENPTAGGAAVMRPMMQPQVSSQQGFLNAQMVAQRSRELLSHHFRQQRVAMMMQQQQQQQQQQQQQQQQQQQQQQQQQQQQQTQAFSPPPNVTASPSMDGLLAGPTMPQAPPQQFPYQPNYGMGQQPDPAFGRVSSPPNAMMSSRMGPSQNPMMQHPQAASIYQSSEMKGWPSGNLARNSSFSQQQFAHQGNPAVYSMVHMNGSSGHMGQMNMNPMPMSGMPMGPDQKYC
Tumor necrosis factor, sequence (P01375 whole entry, the tested form may be a part): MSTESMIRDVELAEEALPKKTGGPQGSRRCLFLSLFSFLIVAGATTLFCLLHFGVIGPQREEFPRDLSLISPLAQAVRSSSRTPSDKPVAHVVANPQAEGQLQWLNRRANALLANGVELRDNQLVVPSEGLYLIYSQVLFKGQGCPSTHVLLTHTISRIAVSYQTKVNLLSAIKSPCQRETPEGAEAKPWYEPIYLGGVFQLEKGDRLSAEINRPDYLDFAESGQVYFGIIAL
Beta-galactosidase, sequence (Q8VNN2 whole entry): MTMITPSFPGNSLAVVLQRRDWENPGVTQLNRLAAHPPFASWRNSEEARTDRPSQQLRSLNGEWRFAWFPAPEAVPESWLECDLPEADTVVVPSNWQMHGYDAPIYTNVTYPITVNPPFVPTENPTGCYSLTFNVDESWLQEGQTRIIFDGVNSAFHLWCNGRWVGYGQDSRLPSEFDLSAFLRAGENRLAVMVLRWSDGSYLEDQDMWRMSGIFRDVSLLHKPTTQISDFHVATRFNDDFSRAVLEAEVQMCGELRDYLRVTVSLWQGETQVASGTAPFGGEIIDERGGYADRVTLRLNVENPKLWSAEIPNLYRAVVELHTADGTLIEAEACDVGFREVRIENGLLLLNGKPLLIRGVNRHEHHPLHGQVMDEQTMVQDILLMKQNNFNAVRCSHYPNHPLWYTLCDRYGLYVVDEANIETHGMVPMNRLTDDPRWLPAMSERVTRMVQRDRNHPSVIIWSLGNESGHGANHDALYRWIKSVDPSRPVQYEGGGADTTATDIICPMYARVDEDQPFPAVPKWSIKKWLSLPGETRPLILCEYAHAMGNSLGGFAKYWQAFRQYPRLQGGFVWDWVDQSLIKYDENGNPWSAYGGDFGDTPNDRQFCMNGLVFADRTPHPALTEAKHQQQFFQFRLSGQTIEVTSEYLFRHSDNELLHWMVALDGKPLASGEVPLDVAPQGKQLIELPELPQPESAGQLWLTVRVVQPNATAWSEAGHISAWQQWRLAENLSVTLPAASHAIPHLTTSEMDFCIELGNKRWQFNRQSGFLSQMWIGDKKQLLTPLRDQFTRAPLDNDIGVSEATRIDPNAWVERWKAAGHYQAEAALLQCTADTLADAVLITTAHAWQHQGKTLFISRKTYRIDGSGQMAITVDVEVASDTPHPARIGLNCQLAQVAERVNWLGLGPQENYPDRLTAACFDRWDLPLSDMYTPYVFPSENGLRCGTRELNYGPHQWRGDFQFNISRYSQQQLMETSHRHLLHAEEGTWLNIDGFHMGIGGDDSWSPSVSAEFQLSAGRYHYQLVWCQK
Nonstructural protein 1, sequence (Q194T2 whole entry): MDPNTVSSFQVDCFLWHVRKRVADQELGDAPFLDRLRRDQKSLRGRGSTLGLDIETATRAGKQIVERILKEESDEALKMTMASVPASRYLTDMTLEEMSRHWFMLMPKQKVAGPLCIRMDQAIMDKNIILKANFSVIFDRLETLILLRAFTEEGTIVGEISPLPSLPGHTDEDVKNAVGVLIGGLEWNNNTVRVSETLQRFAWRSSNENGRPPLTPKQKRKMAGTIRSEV

As to `O=C(Nc1ccc(Cl)cc1)C1CCN(C(=O)c2cccs2)CC1`, the IC50 in assay [1] and in assay [2] was > 100 µM (inactive) throughout.

`COc1ccccc1CCNC(=O)CSc1ccc(-c2ccco2)nn1`: the IC50 in assay [1] and in assay [2] was > 100 µM (inactive) in each case.

With `Cc1oc(-c2cc(F)ccc2F)nc1CN1CCN(c2ncnc3ccccc23)CC1`, the EC50 in assay [3] is 4.42 µM (active). Also, the IC50 in assay [4] was > 20 µM (inactive); in assay [5], 19.9 µM (active); in assay [6] it was 8.53 µM (active); in [7], 5.97 µM (active); in [8], 6.29 µM (active); in assay [9], 11.1 µM (active).

Turning to `CN(Cc1cccnc1)C(=O)c1cc(COc2ccc3ncccc3c2)on1`, the IC50 in assay [10] was > 20 µM (inactive); in assay [4], > 20 µM (inactive); in assay [5], 17.3 µM (active); in [6] it was 8.18 µM (active); in assay [7] it was 5.24 µM (active); in assay [8], 2.92 µM (active). Also, the half-maximal inhibitory concentration (IC50) in assay [9] is 6.23 µM (active). The EC50 in assay [3] is 3.64 µM (active); in assay [11] it was > 350 µM (not active); in assay [13], > 350 µM (not active); in [14], 9.78 µM (active). The AC50 in [12] was 3.92 µM (active).

In the case of `CCc1ccc(NC(=O)C(CC)Sc2nc3cc4c(cc3c(=O)n2Cc2ccco2)OCO4)cc1` (configuration not stated), the AC50 in assay [15] was 8.32 µM (active). For the same molecule, the IC50 in [16] is 48.9 µM (active).

Consider `CC(=O)NS(=O)(=O)c1ccc(Nc2ccc([N+](=O)[O-])c3nonc23)cc1`, for which the pIC50 in [17] is < 4.49. Moreover, the IC50 in assay [18] was 34.7 µM (active); in assay [19] it was 13.9 µM (active). Further, the EC50 in assay [20] is 18.1 µM (active).

Turning to `O=C(CSc1ncnc2c1oc1ccccc12)NCc1ccco1`, the EC50 in assay [21] was > 79.4 µM (not active); in assay [22] it was 22.6 µM (inactive); in [23], 11.5 µM (not active).

Consider `O=C(CSc1ncnc2c1oc1ccccc12)Nc1ccccc1F`, for which the concentration giving a half-maximal response (EC50) is 91.1 µM (not active) in assay [21], 63.3 µM (inactive) in [22] and 59.2 µM (not active) in assay [23].

Regarding `COc1ccccc1NC(=O)COC(=O)c1ccc(NC(N)=O)cc1`, the half-inhibitory concentration (IC50) is 69.4 µM (active) in assay [1] and 17.9 µM (active) in assay [2].

As to `C/C(=N\Nc1ncc(Cl)cc1Cl)c1ccccn1`, the pIC50 in assay [17] was < 4.49. Further, the IC50 in assay [24] was 12 µM (active); in assay [19], 3.47 µM (active). For the same molecule, in assay [25], the AC50 was 1.84 µM (active). For the same molecule, the EC50 in [20] is > 31.5 µM (inactive); in assay [26], 0.0209 µM (active).

As to `Clc1cccc(-c2ccc(/C=N/c3ccc(N4CCOCC4)cc3)o2)c1Cl`, the EC50 in assay [21] is > 79.4 µM (not active); in assay [22], 49 µM (inactive); in assay [23] it was 30.5 µM (not active). The IC50 in [27] is 14.5 µM (active).
